Measured values: ChEMBL document CHEMBL5325394, “What We Have Gained from Ibogaine: α3β4 Nicotinic Acetylcholine Receptor Inhibitors as Treatments for Substance Use Disorders” (J Med Chem, 2023)
Where a SMILES comes first, the peptide text is derived from it. Bridges are numbered along the chain shown (N, C = ends).

Experiments:
[1] = biological target: Neuronal acetylcholine receptor; alpha3/beta2 (Homo sapiens, UniProt P17787+P32297); experiment: Inhibition of nAChR alpha3beta2 (unknown origin) by electrophysiology assay; format: protein-complex assay
[2] = biological target: T1, Neuronal acetylcholine receptor; alpha3/beta4 (Homo sapiens, UniProt P30926+P32297); experiment: Inhibition of alpha3beta4 (unknown origin) by electrophysiology assay; format: protein-complex assay
[3] = biological target: T2, Neuronal acetylcholine receptor; alpha4/beta2 (Homo sapiens, UniProt P17787+P43681); experiment: Inhibition of nAChR alpha4beta2 (unknown origin) by electrophysiology assay; format: protein-complex assay
[4] = biological target: T3, Neuronal acetylcholine receptor subunit alpha-7 (Homo sapiens, UniProt P36544); experiment: Inhibition of nAChR alpha7 (unknown origin) by electrophysiology assay
[5] = biological target: T3, Neuronal acetylcholine receptor subunit alpha-7; experiment: Antagonist activity at alpha7 nAChRs in human SH-SY5Y cells assessed as increase in intracellular calcium level by FLIPR assay; format: cell-based
[6] = biological target: T1, Neuronal acetylcholine receptor; alpha3/beta4; experiment: Inhibition of alpha3beta4 nAChRs (unknown origin); format: protein-complex assay
[7] = biological target: T3, Neuronal acetylcholine receptor subunit alpha-7; experiment: Antagonist activity at nAChR alpha7 in human SH-SY5Y cells assessed as increase in intracellular calcium level preincubated for 10 mins followed by choline addition measured after 30 mins by FLIPR assay; format: cell-based
[8] = biological target: T1, Neuronal acetylcholine receptor; alpha3/beta4; experiment: Antagonist activity at nAChR alpha3beta4 in human SH-SY5Y cells assessed as increase in intracellular calcium level preincubated for 10 mins followed by nicotine addition measured after 30 mins by FLIPR assay; format: cell-based
[9] = biological target: T2, Neuronal acetylcholine receptor; alpha4/beta2; experiment: Partial agonist activity at alpha4beta2 nAChR in HEK293 cells assessed as reduction in Ca+2 influx by FLIPR assy; format: cell-based
[10] = biological target: T1, Neuronal acetylcholine receptor; alpha3/beta4; experiment: Partial agonist activity at alpha3beta4 nAChR in HEK293 cells assessed as reduction in Ca+2 influx by FLIPR assy; format: cell-based

T3 sequence (P36544 whole entry): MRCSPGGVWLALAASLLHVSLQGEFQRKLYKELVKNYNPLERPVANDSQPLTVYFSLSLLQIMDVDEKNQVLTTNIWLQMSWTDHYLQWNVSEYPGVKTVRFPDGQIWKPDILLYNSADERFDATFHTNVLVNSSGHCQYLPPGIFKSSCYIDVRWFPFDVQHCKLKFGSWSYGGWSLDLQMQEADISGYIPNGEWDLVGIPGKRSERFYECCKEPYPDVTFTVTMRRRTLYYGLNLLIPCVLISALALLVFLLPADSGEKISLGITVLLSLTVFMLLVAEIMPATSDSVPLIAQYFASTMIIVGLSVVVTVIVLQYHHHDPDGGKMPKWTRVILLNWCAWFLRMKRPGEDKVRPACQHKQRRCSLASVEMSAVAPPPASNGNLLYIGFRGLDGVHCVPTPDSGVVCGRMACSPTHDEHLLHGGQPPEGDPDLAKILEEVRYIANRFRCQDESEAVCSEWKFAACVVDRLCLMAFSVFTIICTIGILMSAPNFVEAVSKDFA
T1 sequence (P30926 whole entry): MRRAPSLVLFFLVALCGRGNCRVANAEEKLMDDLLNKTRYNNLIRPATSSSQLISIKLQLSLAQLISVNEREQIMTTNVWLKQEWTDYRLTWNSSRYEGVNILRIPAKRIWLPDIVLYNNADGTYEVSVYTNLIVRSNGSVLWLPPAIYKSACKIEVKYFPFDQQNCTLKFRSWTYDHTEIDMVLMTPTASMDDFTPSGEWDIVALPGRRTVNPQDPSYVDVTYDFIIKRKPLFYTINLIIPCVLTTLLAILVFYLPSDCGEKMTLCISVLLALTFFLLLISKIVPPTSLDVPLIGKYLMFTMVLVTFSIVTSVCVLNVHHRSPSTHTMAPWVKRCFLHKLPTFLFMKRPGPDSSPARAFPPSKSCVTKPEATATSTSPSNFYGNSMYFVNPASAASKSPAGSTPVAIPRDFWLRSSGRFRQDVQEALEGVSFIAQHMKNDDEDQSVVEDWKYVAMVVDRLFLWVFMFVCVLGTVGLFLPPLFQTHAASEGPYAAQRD
T1 sequence (P32297 whole entry): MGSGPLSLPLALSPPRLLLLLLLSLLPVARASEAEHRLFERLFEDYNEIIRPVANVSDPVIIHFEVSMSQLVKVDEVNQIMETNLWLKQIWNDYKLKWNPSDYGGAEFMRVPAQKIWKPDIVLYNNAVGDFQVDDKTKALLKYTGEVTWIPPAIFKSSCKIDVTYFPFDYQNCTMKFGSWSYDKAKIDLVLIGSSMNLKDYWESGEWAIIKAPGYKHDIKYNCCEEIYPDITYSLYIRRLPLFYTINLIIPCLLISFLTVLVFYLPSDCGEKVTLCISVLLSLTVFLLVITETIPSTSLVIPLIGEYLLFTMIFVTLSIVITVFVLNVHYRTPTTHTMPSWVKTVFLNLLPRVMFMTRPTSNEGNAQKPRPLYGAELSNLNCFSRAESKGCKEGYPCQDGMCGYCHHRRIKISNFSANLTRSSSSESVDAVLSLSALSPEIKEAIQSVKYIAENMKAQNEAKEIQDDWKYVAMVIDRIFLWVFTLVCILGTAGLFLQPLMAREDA
T2 sequence (P17787 whole entry): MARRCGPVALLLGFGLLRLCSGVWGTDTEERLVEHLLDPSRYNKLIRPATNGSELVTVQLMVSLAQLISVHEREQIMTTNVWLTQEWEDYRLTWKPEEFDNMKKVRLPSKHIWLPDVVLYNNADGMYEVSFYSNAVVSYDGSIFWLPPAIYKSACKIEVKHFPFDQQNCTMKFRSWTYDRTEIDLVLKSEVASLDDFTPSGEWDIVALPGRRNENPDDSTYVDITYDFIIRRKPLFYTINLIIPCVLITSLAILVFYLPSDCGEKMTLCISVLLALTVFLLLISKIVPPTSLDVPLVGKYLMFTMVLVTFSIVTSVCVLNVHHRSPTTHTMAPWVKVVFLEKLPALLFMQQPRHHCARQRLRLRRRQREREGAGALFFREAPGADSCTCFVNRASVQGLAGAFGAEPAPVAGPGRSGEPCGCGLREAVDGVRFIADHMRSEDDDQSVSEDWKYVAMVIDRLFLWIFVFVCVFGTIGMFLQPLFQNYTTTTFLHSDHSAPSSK
T2 sequence (P43681 whole entry): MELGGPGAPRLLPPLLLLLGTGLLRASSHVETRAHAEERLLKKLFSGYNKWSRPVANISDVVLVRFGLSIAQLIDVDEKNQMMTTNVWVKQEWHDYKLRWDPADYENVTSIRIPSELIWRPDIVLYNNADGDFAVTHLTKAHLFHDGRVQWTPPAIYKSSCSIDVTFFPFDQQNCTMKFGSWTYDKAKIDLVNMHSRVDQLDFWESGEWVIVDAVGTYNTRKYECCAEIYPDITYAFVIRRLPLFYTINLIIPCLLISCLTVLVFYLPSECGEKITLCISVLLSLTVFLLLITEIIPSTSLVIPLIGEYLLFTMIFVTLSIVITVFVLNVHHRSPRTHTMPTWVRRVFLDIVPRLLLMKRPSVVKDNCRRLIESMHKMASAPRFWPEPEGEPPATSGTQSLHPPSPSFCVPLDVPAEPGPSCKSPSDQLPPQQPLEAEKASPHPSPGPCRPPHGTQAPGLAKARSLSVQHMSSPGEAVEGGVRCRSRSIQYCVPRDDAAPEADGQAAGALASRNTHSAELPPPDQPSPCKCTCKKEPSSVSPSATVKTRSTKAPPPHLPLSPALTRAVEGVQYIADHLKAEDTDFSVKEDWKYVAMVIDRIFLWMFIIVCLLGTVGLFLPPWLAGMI
Sequence of Neuronal acetylcholine receptor; alpha3/beta2 (P17787 whole entry): as the sequence (P17787 whole entry) above
Sequence of Neuronal acetylcholine receptor; alpha3/beta2 (P32297 whole entry): as the sequence (P32297 whole entry) above

**Q.** Which IC50 [1] does the source give for `C[C@@H]1NC(=O)[C@H](Cc2ccccc2)NC(=O)[C@@H]2CSSC[C@H](NC(=O)CN)C(=O)N[C@@H](CSSC[C@@H](C(N)=O)NC(=O)[C@H](CC(=O)O)NC(=O)[C@@H]3CCCN3C(=O)[C@H](CC(N)=O)NC(=O)[C@H]([C@@H](C)O)NC1=O)C(=O)N[C@@H](CO)C(=O)N[C@@H](Cc1ccc(O)cc1)C(=O)N1CCC[C@H]1C(=O)N1CCC[C@H]1C(=O)N2` here?
**A.** The IC50 was over 100000 nM.

**Q.** What about the IC50 [2] of the same compound?
**A.** The IC50 was 770 nM.

**Q.** And the IC50 [3]?
**A.** The IC50 was over 100000 nM.

**Q.** What about the IC50 [4] of the same compound?
**A.** The IC50 was over 100000 nM.

**Q.** For `CC[C@H](C)[C@@H]1NC(=O)[C@H](CC(N)=O)NC(=O)[C@@H]2CCCN2C(=O)[C@H](CC(N)=O)NC(=O)[C@H](CC(N)=O)NC(=O)[C@H](C(C)C)NC(=O)[C@H](CCCNC(=N)N)NC(=O)[C@@H]2CSSC[C@H](NC(=O)CNC(=O)[C@@H](N)CO)C(=O)N[C@@H](CSSC[C@@H](C(=O)O)NC1=O)C(=O)N[C@@H](CO)C(=O)N[C@@H](CC(N)=O)C(=O)N1CCC[C@H]1C(=O)N[C@@H](C)C(=O)N2` (H-SGCCSNPACRVNNPNIC-OH; disulfide 3-9, 4-17), which IC50 [5] is on record?
**A.** The IC50 was over 10 nM.

**Q.** For `CC(C)C[C@@H]1NC(=O)[C@H](C(C)C)NC(=O)[C@H](C)NC(=O)[C@@H]2CSSC[C@H](NC(=O)CN)C(=O)N[C@@H](CSSC[C@@H](C(=O)O)NC(=O)[C@H](Cc3ccc(O)cc3)NC1=O)C(=O)N[C@@H](CO)C(=O)N[C@@H]([C@@H](C)O)C(=O)N1CCC[C@H]1C(=O)N1CCC[C@H]1C(=O)N2` (H-GCCSTPPCAVLYC-OH; disulfide 2-8, 3-13), which IC50 [6] is on record?
**A.** Its IC50 is 27.7 nM.

**Q.** How did the IC50 [7] turn out when `CC[C@H](C)[C@@H]1NC(=O)[C@H](CC(N)=O)NC(=O)[C@@H]2CCCN2C(=O)[C@H](CC(N)=O)NC(=O)[C@H](CC(C)C)NC(=O)[C@H](C(C)C)NC(=O)[C@H](CCCNC(=N)N)NC(=O)[C@@H]2CSSC[C@H](NC(=O)CNC(=O)[C@@H](N)CO)C(=O)N[C@@H](CSSC[C@@H](C(=O)O)NC1=O)C(=O)N[C@@H](CO)C(=O)N[C@@H](CC(N)=O)C(=O)N1CCC[C@H]1C(=O)N[C@@H](C)C(=O)N2` (H-SGCCSNPACRVLNPNIC-OH; disulfide 3-9, 4-17) was run?
**A.** The IC50 was 2570 nM.

**Q.** What about the IC50 [8] of the same compound?
**A.** The IC50 was 630 nM.

**Q.** How did the IC50 [9] turn out when `FC(F)(F)c1ccc2c(c1)[C@@H]1CNC[C@H]2C1` was run?
**A.** Its IC50 is 110 nM.

**Q.** And the IC50 [10]?
**A.** The IC50 was 260 nM.

**Q.** What does the source list for `CC[C@H](C)[C@@H]1NC(=O)[C@H](CC(N)=O)NC(=O)[C@@H]2CCCN2C(=O)[C@H](CC(N)=O)NC(=O)[C@H](CC(N)=O)NC(=O)[C@H](C(C)C)NC(=O)[C@H](CCSC)NC(=O)[C@@H]2CSSC[C@H](NC(=O)CNC(=O)[C@@H](N)CO)C(=O)N[C@@H](CSSC[C@@H](C(=O)O)NC1=O)C(=O)N[C@@H](CO)C(=O)N[C@@H](CC(N)=O)C(=O)N1CCC[C@H]1C(=O)N[C@@H](C)C(=O)N2` (H-SGCCSNPACMVNNPNIC-OH; disulfide 3-9, 4-17)?
**A.** IC50 [7]: 242 nM; IC50 [8]: 440 nM
